Consider 13 compounds from patent US12180193B2, “Accelerating fibrosarcoma protein degrading compounds and associated methods of use” (Arvinas Operations, Inc., priority 2020, dated 2024).

The structures appear in SMILES notation. Some results are limits rather than exact numbers.

In one test the target is T1, BRAF G466V (Homo sapiens, UniProt P15056, G466V).
T1 construct: expressed in transfected cells
The test is described as follows: Cellular assay of target protein degradation, T-Rex 293 cells stably transfected with HA-BRAF G466V (HA immunofluorescence, high content imaging). Type of test: cell-based. Particulars: T-Rex 293 HA-BRAF G466V; for DC50: half maximal degradation, read-out: BRaf G466V DC50; for Dmax: maximum degradation observed. The procedure, abridged:
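First, stably transfected T-Rex 293 cells were plated with 0.75 ng/mL doxycycline and grown for 24 hours. Next, compound (final 30 nM to 3 pM, 0.1% DMSO) was added for another 24 hours at 37° C. Finally, cells were fixed, stained for HA and imaged.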

Another test concerns the target T2, BRAF V600E (Homo sapiens, UniProt P15056, V600E).
T2 construct: expressed in transfected cells
The test is described as follows: Cellular assay of target protein degradation, T-Rex 293 cells stably transfected with HA-BRAF_V600E (HA immunofluorescence, high content imaging). Format: cell-based. As to conditions: T-Rex 293 HA-BRAF V600E; for DC50: half maximal degradation, read-out: BRaf V600E DC50; for Dmax: maximum degradation observed. The gist of the method: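 Read-out is anti-HA immunofluorescence quantified by high-content imaging, giving half-maximal degradation concentration (DC50) and maximum degradation (Dmax, percent of control). Cells expressed the construct under 1 ng/mL doxycycline and received compound (1 μM to 0.1 nM final, 0.1% DMSO) for 24 h at 37 °C.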

T2 sequence (P15056 whole entry V600E): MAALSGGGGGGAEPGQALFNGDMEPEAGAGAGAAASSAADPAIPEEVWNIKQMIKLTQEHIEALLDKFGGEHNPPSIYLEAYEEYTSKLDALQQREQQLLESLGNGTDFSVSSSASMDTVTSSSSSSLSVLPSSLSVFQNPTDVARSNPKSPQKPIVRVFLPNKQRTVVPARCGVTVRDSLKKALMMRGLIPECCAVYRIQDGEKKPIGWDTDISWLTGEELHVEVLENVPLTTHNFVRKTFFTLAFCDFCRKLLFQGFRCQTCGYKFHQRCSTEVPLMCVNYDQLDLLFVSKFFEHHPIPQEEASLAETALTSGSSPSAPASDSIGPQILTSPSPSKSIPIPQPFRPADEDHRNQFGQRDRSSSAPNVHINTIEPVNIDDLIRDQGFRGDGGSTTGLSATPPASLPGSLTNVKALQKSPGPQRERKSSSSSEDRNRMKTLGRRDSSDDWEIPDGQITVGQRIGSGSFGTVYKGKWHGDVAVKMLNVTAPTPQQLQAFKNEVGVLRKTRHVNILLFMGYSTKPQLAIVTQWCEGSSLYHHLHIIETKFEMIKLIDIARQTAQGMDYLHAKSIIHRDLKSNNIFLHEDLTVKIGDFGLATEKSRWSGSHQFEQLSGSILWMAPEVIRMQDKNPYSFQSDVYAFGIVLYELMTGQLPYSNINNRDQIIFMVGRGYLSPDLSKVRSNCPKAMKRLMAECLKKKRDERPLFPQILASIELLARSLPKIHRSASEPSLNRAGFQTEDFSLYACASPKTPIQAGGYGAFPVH
T1 sequence (P15056 whole entry G466V): as the sequence (P15056 whole entry V600E) above, with G466V, E600V counted along it

With `COc1cc([C@@H](O)CCN2CCN(c3ccc(-c4cnc5[nH]cc(C(=O)c6c(F)ccc(NS(=O)(=O)N7CC[C@@H](F)C7)c6F)c5c4)cc3)CC2)cc2c1C(=O)N([C@@H]1CCC(=O)NC1=O)C2` [Compound 296, (3R)-N-{3-[5-(4-{4-[(3S)-3-{2-[(3R)-2,6-dioxopiperidin-3-yl]-7-methoxy-1-oxo-2,3-dihydro-1H-isoindol-5-yl}-3-hydroxypropyl]piperazin-1-yl}phenyl)-1H-pyrrolo[2,3-b]pyridine-3-carbonyl]-2,4-difluorophenyl}-3-fluoropyrrolidine-1-sulfonamide], at BRAF G466V, the DC50 (in general, the concentration giving 50% degradation) was 0.001 to 0.01 µM and the Dmax (commonly the greatest extent of degradation seen) is 35 to 70%. Moreover, at BRAF V600E, the half-maximal degradation concentration (DC50) lay within 0.05 to 0.5 µM and the maximal degradation (Dmax) lay in the range of 35 to 70%.
`O=C1CCC(N2Cc3cc(C4CCN(C[C@H]5CCN(c6ccc(-c7cnc8[nH]cc(C(=O)c9c(F)ccc(NS(=O)(=O)N%10CC[C@@H](F)C%10)c9F)c8c7)cc6)C[C@H]5F)CC4)ccc3C2=O)C(=O)N1` (stereo partly drawn) [Compound 297, (3R)-N-[3-(5-{4-[(3S,4R)-4-({4-[2-(2,6-dioxopiperidin-3-yl)-1-oxo-2,3-dihydro-1H-isoindol-5-yl]piperidin-1-yl}methyl)-3-fluoropiperidin-1-yl]phenyl}-1H-pyrrolo[2,3-b]pyridine-3-carbonyl)-2,4-difluorophenyl]-3-fluoropyrrolidine-1-sulfonamide]: the half-maximal degradation concentration (DC50) on BRAF G466V was less than 0.001 µM; at BRAF V600E it was 0.005 to 0.05 µM. For the same compound, the values for the Dmax on BRAF G466V and on BRAF V600E were greater than 70% and 35 to 70%, respectively.
Regarding `O=C1CCC(N2Cc3cc(N4CCC(CN5CCN(C6(c7ncc(-c8cnc9[nH]cc(C(=O)c%10c(F)ccc(NS(=O)(=O)N%11CC[C@@H](F)C%11)c%10F)c9c8)cn7)CC6)CC5)CC4)ccc3C2=O)C(=O)N1` (stereo partly drawn) [Compound 298, (3R)-N-{3-[5-(2-{1-[4-({1-[2-(2,6-dioxopiperidin-3-yl)-1-oxo-2,3-dihydro-1H-isoindol-5-yl]piperidin-4-yl}methyl)piperazin-1-yl]cyclopropyl}pyrimidin-5-yl)-1H-pyrrolo[2,3-b]pyridine-3-carbonyl]-2,4-difluorophenyl}-3-fluoropyrrolidine-1-sulfonamide], on BRAF G466V, the DC50 is less than 0.001 µM and the maximal degradation (Dmax) is 35 to 70%. On BRAF V600E, the DC50 was 0.05 to 0.5 µM and the Dmax is less than 35%.
As to `O=C1CCC(N2Cc3cc([C@H](O)CN4CC5(C4)CN(c4ccc(-c6cnc7[nH]cc(C(=O)c8c(F)ccc(NS(=O)(=O)N9CC[C@@H](F)C9)c8F)c7c6)cc4)C5)ccc3C2=O)C(=O)N1` (stereo partly drawn) [Compound 299, (3R)-N-{3-[5-(4-{6-[(2S)-2-[2-(2,6-dioxopiperidin-3-yl)-1-oxo-2,3-dihydro-1H-isoindol-5-yl]-2-hydroxyethyl]-2,6-diazaspiro[3.3]heptan-2-yl}phenyl)-1H-pyrrolo[2,3-b]pyridine-3-carbonyl]-2,4-difluorophenyl}-3-fluoropyrrolidine-1-sulfonamide], at BRAF G466V, the DC50 fell in the range of 0.001 to 0.01 µM and the greatest degradation seen (Dmax) is greater than 70%. Besides, on BRAF V600E, the DC50 is 0.005 to 0.05 µM and the Dmax is 35 to 70%.
For `O=C1CC[C@H](N2Cc3cc([C@@H](O)CCN4CCN(c5ccc(-c6cnc7[nH]cc(C(=O)c8c(F)ccc(NS(=O)(=O)N9CC[C@@H](F)C9)c8F)c7c6)cc5)CC4)c(F)cc3C2=O)C(=O)N1` [Compound 300, (3R)-N-{3-[5-(4-{4-[(3S)-3-{2-[(3S)-2,6-dioxopiperidin-3-yl]-6-fluoro-1-oxo-2,3-dihydro-1H-isoindol-5-yl}-3-hydroxypropyl]piperazin-1-yl}phenyl)-1H-pyrrolo[2,3-b]pyridine-3-carbonyl]-2,4-difluorophenyl}-3-fluoropyrrolidine-1-sulfonamide], in that order: less than 0.001 µM, 35 to 70%, 0.05 to 0.5 µM and 35 to 70%.
In the same order, the values of `O=C1CC[C@@H](N2Cc3cc([C@@H](O)CCN4CCN(c5ccc(-c6cnc7[nH]cc(C(=O)c8c(F)ccc(NS(=O)(=O)N9CC[C@@H](F)C9)c8F)c7c6)cc5)CC4)c(F)cc3C2=O)C(=O)N1` [Compound 301, (3R)-N-{3-[5-(4-{4-[(3S)-3-{2-[(3R)-2,6-dioxopiperidin-3-yl]-6-fluoro-1-oxo-2,3-dihydro-1H-isoindol-5-yl}-3-hydroxypropyl]piperazin-1-yl}phenyl)-1H-pyrrolo[2,3-b]pyridine-3-carbonyl]-2,4-difluorophenyl}-3-fluoropyrrolidine-1 sulfonamide] are less than 0.001 µM, greater than 70%, 0.05 to 0.5 µM and 35 to 70%.
In the same order, the values of `O=C1CCC(N2Cc3cc(N4CCC(CC5CN(c6ccc(-c7cnc8[nH]cc(C(=O)c9c(F)ccc(NS(=O)(=O)N%10CC[C@@H](F)C%10)c9F)c8c7)cc6)C5)CC4)ccc3C2=O)C(=O)N1` (stereo partly drawn) [Compound 302, (3R)-N-[3-(5-{4-[3-({1-[2-(2,6-dioxopiperidin-3-yl)-1-oxo-2,3-dihydro-1H-isoindol-5-yl]piperidin-4-yl}methyl)azetidin-1-yl]phenyl}-1H-pyrrolo[2,3-b]pyridine-3-carbonyl)-2,4-difluorophenyl]-3-fluoropyrrolidine-1-sulfonamide] are 0.001 to 0.01 µM, 35 to 70%, 0.05 to 0.5 µM and 35 to 70%.
On to `O=C1CCC(N2Cc3cc(N4CC(CN5CCC(Cc6ccc(-c7cnc8[nH]cc(C(=O)c9c(F)ccc(NS(=O)(=O)N%10CC[C@@H](F)C%10)c9F)c8c7)cc6)CC5)C4)ccc3C2=O)C(=O)N1` (stereo partly drawn) [Compound 303, (3R)-N-{3-[5-(4-{[1-({1-[2-(2,6-dioxopiperidin-3-yl)-1-oxo-2,3-dihydro-1H-isoindol-5-yl]azetidin-3-yl}methyl)piperidin-4-yl]methyl}phenyl)-1H-pyrrolo[2,3-b]pyridine-3-carbonyl]-2,4-difluorophenyl}-3-fluoropyrrolidine-1-sulfonamide], for which the values for the DC50 at BRAF G466V and at BRAF V600E were 0.001 to 0.01 µM and 0.005 to 0.05 µM, respectively. Further, the Dmax on BRAF G466V was greater than 70%; on BRAF V600E, 35 to 70%.
With `O=C1CCC(N2Cc3cc(N4CC(CN5CCC(C6(c7ccc(-c8cnc9[nH]cc(C(=O)c%10c(F)ccc(NS(=O)(=O)N%11CC[C@@H](F)C%11)c%10F)c9c8)cc7)CC6)CC5)C4)ccc3C2=O)C(=O)N1` (stereo partly drawn) [Compound 304, (3R)-N-{3-[5-(4-{1-[1-({1-[2-(2,6-dioxopiperidin-3-yl)-1-oxo-2,3-dihydro-1H-isoindol-5-yl]azetidin-3-yl}methyl)piperidin-4-yl]cyclopropyl}phenyl)-1H-pyrrolo[2,3-b]pyridine-3-carbonyl]-2,4-difluorophenyl}-3-fluoropyrrolidie-1-sulfonamide], the DC50 on BRAF G466V was in the range of 0.001 to 0.01 µM; on BRAF V600E, 0.05 to 0.5 µM. The Dmax on BRAF G466V and at BRAF V600E was 35 to 70% in each case.
In the case of `O=C1CCC(N2Cc3cc(N4CC(CC5CCN(c6ccc(-c7cnc8[nH]cc(C(=O)c9c(F)ccc(NS(=O)(=O)N%10CC[C@@H](F)C%10)c9F)c8c7)cc6)CC5)C4)ccc3C2=O)C(=O)N1` (stereo partly drawn) [Compound 306, (3R)-N-[3-(5-{4-[4-({1-[2-(2,6-dioxopiperidin-3-yl)-1-oxo-2,3-dihydro-1H-isoindol-5-yl]azetidin-3-yl}methyl)piperidin-1-yl]phenyl}-1H-pyrrolo[2,3-b]pyridine-3-carbonyl)-2,4-difluorophenyl]-3-fluoropyrrolidine-1-sulfonamide], on BRAF G466V, the DC50 is 0.001 to 0.01 µM and the Dmax was in the range of 35 to 70%. In addition, on BRAF V600E, the DC50 is 0.05 to 0.5 µM and the Dmax lay within 35 to 70%.
On to `O=C1CCC(N2Cc3cc(N4CCC(CN5CC(Cc6ncc(-c7cnc8[nH]cc(C(=O)c9c(F)ccc(NS(=O)(=O)N%10CC[C@@H](F)C%10)c9F)c8c7)cn6)C5)CC4)ccc3C2=O)C(=O)N1` (stereo partly drawn) [Compound 307, (3R)-N-{3-[5-(2-{[1-({1-[2-(2,6-dioxopiperidin-3-yl)-1-oxo-2,3-dihydro-1H-isoindol-5-yl]piperidin-4-yl}methyl)azetdidin-3-yl]methyl}pyrimidin-5-yl)-1H-pyrrolo[2,3-b]pyridine-3-carbonyl]-2,4-difluorophenyl}-3-fluoropyrrolidine-1-sulfonamide], for which, at BRAF G466V, the DC50 lay in the range of 0.001 to 0.01 µM and the Dmax lay in the range of 35 to 70%. At BRAF V600E, the DC50 is greater than 0.5 µM and the Dmax was greater than 70%.
With `O=C1CCC(N2Cc3cc(N4CCC(CCC5CCN(c6ccc(-c7cnc8[nH]cc(C(=O)c9c(F)ccc(NS(=O)(=O)N%10CC[C@@H](F)C%10)c9F)c8c7)cc6)CC5)CC4)ccc3C2=O)C(=O)N1` (stereo partly drawn) [Compound 308, (3R)-N-[3-(5-{4-[4-(2-{1-[2-(2,6-dioxopiperidin-3-yl)-1-oxo-2,3-dihydro-1H-isoindol-5-yl]piperidin-4-yl}ethyl)piperidin-1-yl]phenyl}-1H-pyrrolo[2,3-b]pyridine-3-carbonyl)-2,4-difluorophenyl]-3-fluoropyrrolidine-1-sulfonamide], the DC50 at BRAF G466V was greater than 0.03 µM. For the same compound, on BRAF V600E, the half-maximal degradation concentration (DC50) was 0.05 to 0.5 µM and the Dmax is less than 35%.
As to `O=C1CCC(N2Cc3cc(N4CCC(CN5CC[C@@H]6CN(c7ccc(-c8cnc9[nH]cc(C(=O)c%10c(F)ccc(NS(=O)(=O)N%11CC[C@@H](F)C%11)c%10F)c9c8)cc7)C[C@@H]6C5)CC4)ccc3C2=O)C(=O)N1` (stereo partly drawn) [Compound 309], at BRAF G466V, the DC50 was in the range of 0.001 to 0.01 µM and the Dmax is greater than 70%. At BRAF V600E, the half-maximal degradation concentration (DC50) fell in the range of 0.005 to 0.05 µM and the Dmax was 35 to 70%.
